# Several values for one entry are separate records, joined by “and”; a condition that tells them apart may be missing. Identical values can stand only once. Like-named read-outs stand apart in the source and are kept apart here.
# Legend:
# [1] = molecular target: T1, recombinant HIV-1 protease (Human immunodeficiency virus type 1 group M subtype B, UniProt P04585); assay: biochemical
# T1 construct: Enzyme: recombinant HIV-1 protease expressed in E.Coli; purchased Bachem California, Inc. H-9040; host or cells: E. coli
# mutant HIV-1 I84V/L90M = assay: Resistance Evaluation, I84V/L90M fold change; assay type: cell-based; design: scale not given here
# [2] = test system: wild-type HIV-1 strain IIIB; assay: microbe, parasite or virus in culture; assay type: cell-based; design: scale not given here
# 84V90M HIV protease = 84V90M HIV protease (Human immunodeficiency virus type 1 group M subtype B, UniProt P04585, I572V/L578M); assay: biochemical; design: species or system HIV-1; conditions: read-out: 84V90M IC50/nM; Enzymatic assay, 84V90M
# [3] = EC50 of mutant I84V/L90M relative to wild type, class symbols
# [4] = Human immunodeficiency virus 1, IIIB
Structure (SMILES),"Ki ([1]; Ki, class symbols, Table 10)",I84V/L90M fold change (mutant HIV-1 I84V/L90M; [3]),"EC50 [2, 4]",also measured
CCOC(=O)C(C)OP(=O)(Cc1ccc2c(c1)CCN(CC(NC(=O)OC1COC3OCCC13)C(O)CN(CC(C)C)S(=O)(=O)c1ccc(OC)cc1)C2)Oc1ccccc1 (stereo not shown),100 to 1000 pM,+ (>3 to ≦10),,
CCOC(=O)C(C)OP(=O)(COc1ccc2c(c1)CCN(CC(NC(=O)OC1COC3OCCC13)C(O)CN(CC(C)C)S(=O)(=O)c1ccc(OC)cc1)C2)Oc1ccccc1 (stereo not shown),100 to 1000 pM,+ (>3 to ≦10),,
COc1ccc(S(=O)(=O)N(CC(C)C)CC(O)C(CC2=CCN(CP(=O)(O)OC(C)C(=O)O)CC2)NC(=O)OC2COC3OCCC23)cc1 (stereo not shown),,,,Ki (pM) [1]: + + +; EC50 (nM) [2]: + + +; I84V/L90M fold change (mutant HIV-1 I84V/L90M; mutant I84V/L90M vs wild type): − (≦3)
CCOC(=O)C(C)OP(=O)(CCN1CC=C(CC(NC(=O)OC2COC3OCCC23)C(O)CN(CC(C)C)S(=O)(=O)c2ccc(OC)cc2)CC1)Oc1ccccc1 (stereo not shown),,,,Ki ([1]; read-out: Ki): > 1000 pM; EC50 (nM) [2]: + + +; I84V/L90M fold change (mutant HIV-1 I84V/L90M; mutant I84V/L90M vs wild type): − (≦3)
COc1ccc(S(=O)(=O)N(CC(C)C)CC(O)C(CN(C)Cc2ccc(P(=O)(O)OC(C)C(=O)O)cc2)NC(=O)OC2COC3OCCC23)cc1 (stereo not shown),,,,Ki (pM) [1]: + +; EC50 ([2]; read-out: EC50): 500 to 5000 nM; I84V/L90M fold change (mutant HIV-1 I84V/L90M; mutant I84V/L90M vs wild type): + + +
CCOC(=O)C(C)OP(=O)(Cc1ccc2c(c1)CCN(C[C@H](NC(=O)O[C@H]1CO[C@H]3OCC[C@H]31)[C@H](O)CN(CC(C)C)S(=O)(=O)c1ccc(OC)cc1)C2)Oc1ccccc1 (stereo partly shown),,,,Ki (pM) [1]: + +; EC50 (nM) [2]: + +; I84V/L90M fold change (mutant HIV-1 I84V/L90M; mutant I84V/L90M vs wild type): + +
COc1ccc(S(=O)(=O)N(CC(C)C)CC(O)C(Cc2ccc(NCP(=O)(O)O)cc2)NC(=O)OC2COC3OCCC23)cc1 (stereo not shown),,,,Ki ([1]; read-out: Ki): 100 to 1000 pM; EC50 (nM) [2]: + +; I84V/L90M fold change (mutant HIV-1 I84V/L90M; mutant I84V/L90M vs wild type): + (>3 to ≦10)
CC(C)CN(CC(O)C(Cc1ccccc1)NC(=O)OC1COC2OCCC12)S(=O)(=O)c1ccc(OCP(=O)(O)Oc2ccccc2)cc1 (stereo not shown),,,> 5000 nM,Ki (pM) [1]: + +
"COC(=O)N[C@H](C(=O)N[C@@H](Cc1ccccc1)[C@@H](O)CN(Cc1ccc(-c2ccccn2)cc1)NC(=O)[C@@H](NC(=O)OC)C(C)(C)C)C(C)(C)C [Atazanavir, reference compound]",,+++ (>30),< 50 nM,Ki ([1]; Ki): 10 to 100 pM
COC(=O)C(C)NP(=O)(COc1ccc(CC(NC(=O)OC2COC3OCCC23)C(O)CN(CC(C)C)S(=O)(=O)c2ccc(OC)cc2)cc1)Oc1ccccc1 (stereo not shown) [Example 30a],10 to 100 pM,− (≦3),< 50 nM,
CCOC(=O)C(C)NP(=O)(COc1ccc(CC(NC(=O)OC2COC3OCCC23)C(O)CN(CC(C)C)S(=O)(=O)c2ccc(OC)cc2)cc1)Oc1ccccc1 (stereo not shown) [Example 30b],< 10 pM,,< 50 nM,
COc1ccc(S(=O)(=O)N(CC(C)C)CC(O)C(Cc2ccc(OCP(=O)(NC(C)C(=O)OC(C)C)Oc3ccccc3)cc2)NC(=O)OC2COC3OCCC23)cc1 (stereo not shown) [Example 30c],10 to 100 pM and < 10 pM,− (≦3),,
CCCCOC(=O)C(C)NP(=O)(COc1ccc(CC(NC(=O)OC2COC3OCCC23)C(O)CN(CC(C)C)S(=O)(=O)c2ccc(OC)cc2)cc1)Oc1ccccc1 (stereo not shown) [Example 30d],10 to 100 pM,− (≦3),< 50 nM,
COc1ccc(S(=O)(=O)N(CC(C)C)CC(O)C(Cc2ccc(OCP(=O)(Oc3ccccc3)OC(C)C(=O)OC(C)C)cc2)NC(=O)OC2COC3OCCC23)cc1 (stereo not shown) [Example 31a],10 to 100 pM and < 10 pM,− (≦3),< 50 nM,
CCCCOC(=O)C(C)OP(=O)(COc1ccc(CC(NC(=O)OC2COC3OCCC23)C(O)CN(CC(C)C)S(=O)(=O)c2ccc(OC)cc2)cc1)Oc1ccccc1 (stereo not shown) [Example 31c],10 to 100 pM,− (≦3),50 to 500 nM,
CCOC(=O)C(C)OP(=O)(COc1ccc(CC(NC(=O)OC2COC3OCCC23)C(O)CN(CC(C)C)S(=O)(=O)c2ccc(OC)cc2)cc1)Oc1ccccc1 (stereo not shown) [Example 31e],< 10 pM,,< 50 nM,
"CC(C)CN(C[C@@H](O)[C@H](Cc1ccc(OCP(=O)(Oc2ccccc2)Oc2ccccc2)cc1)NC(=O)OC1CCOC1)S(=O)(=O)c1ccc(N)cc1 (stereo partly shown) [NH2, phenol]",,,,Ki ([1]; read-out: Ki): 100 to 1000 pM; EC50 (nM) [2]: + +; I84V/L90M fold change (mutant HIV-1 I84V/L90M; mutant I84V/L90M vs wild type): − (≦3)

Structure (SMILES),"Ki ([1]; Ki, class symbols, Table 10)",I84V/L90M fold change (mutant HIV-1 I84V/L90M; [3]),"EC50 [2, 4]",also measured
"CCOP(=O)(COc1ccc(CC(NC(=O)OC2CCOC2)C(O)CN(CC(C)C)S(=O)(=O)c2ccc(OC)cc2)cc1)OCC (stereo not shown) [OMe, OEt]",,,,Ki (pM) [1]: + + and + + +; EC50 (nM) [2]: + + +; I84V/L90M fold change (mutant HIV-1 I84V/L90M; mutant I84V/L90M vs wild type): + + and + + +
"COc1ccc(S(=O)(=O)N(CC(C)C)C[C@@H](O)[C@H](Cc2ccc(OCP(=O)(Oc3ccccc3)Oc3ccccc3)cc2)NC(=O)OC2CCOC2)cc1 (stereo partly shown) [OMe, phenol]",,,,Ki (pM) [1]: + + +; EC50 (nM) [2]: + + +; I84V/L90M fold change (mutant HIV-1 I84V/L90M; mutant I84V/L90M vs wild type): + (>3 to ≦10)
"CC(C)CN(C[C@@H](O)[C@H](Cc1ccccc1)NC(=O)O[C@H]1CO[C@H]2OCC[C@H]21)S(=O)(=O)c1ccc(OCP(=O)(Oc2ccccc2)O[C@@H](C)C(=O)OC(C)C)cc1 (stereo partly shown) [OPh, Lac-iPr]",,,,Ki ([1]; read-out: Ki): 100 to 1000 pM; EC50 ([2]; read-out: EC50): 500 to 5000 nM
CCOP(=O)(COc1ccc(CC(NC(=O)OC2COC3OCCC23)C(O)CN(CC(C)C)S(=O)(=O)c2ccc(OC)cc2)cc1)Oc1ccccc1 (stereo not shown) [drawing 608 R1=OEt R2=OPh],< 10 pM,,< 50 nM,
COc1ccc(S(=O)(=O)N(CC(C)C)CC(O)C(Cc2ccc(OCP(=O)(O)Oc3ccccc3)cc2)NC(=O)OC2COC3OCCC23)cc1 (stereo not shown) [drawing 608 R1=OH R2=OPh],< 10 pM,,> 5000 nM,
COc1ccc(S(=O)(=O)N(CC(C)C)CC(O)C(Cc2ccc(OCP(=O)(OC)Oc3ccccc3)cc2)NC(=O)OC2COC3OCCC23)cc1 (stereo not shown) [drawing 608 R1=OMe R2=OPh],10 to 100 pM,,< 50 nM,
COc1ccc(S(=O)(=O)N(CC(C)C)CC(O)C(Cc2ccc(OCP(=O)(NC(C)C(=O)OC(C)C)Oc3ccccc3)cc2)NC(=O)OC2COC3OCCC23)cc1 (stereo not shown) [drawing 614 R1=OPh R2=Ala-iPr],< 10 pM and 10 to 100 pM,,< 50 nM,
CCCCOC(=O)CNP(=O)(COc1ccc(CC(NC(=O)OC2COC3OCCC23)C(O)CN(CC(C)C)S(=O)(=O)c2ccc(OC)cc2)cc1)Oc1ccccc1 (stereo not shown) [drawing 614 R1=OPh R2=Gly-Bu],10 to 100 pM,− (≦3),50 to 500 nM,
CCOC(=O)COP(=O)(COc1ccc(CC(NC(=O)OC2COC3OCCC23)C(O)CN(CC(C)C)S(=O)(=O)c2ccc(OC)cc2)cc1)Oc1ccccc1 (stereo not shown) [drawing 615 R1=OPh R2=Glc-Et],< 10 pM,− (≦3),50 to 500 nM,
CCOC(=O)C(C)OP(=O)(COc1ccc(CC(NC(=O)OC2COC3OCCC23)C(O)CN(CC(C)C)S(=O)(=O)c2ccc(OC)cc2)cc1)Oc1cccc(CN)c1 [drawing 617 R1=OPb-m-CH2NH2 R2=(S)Lac-Et],10 to 100 pM,,50 to 500 nM,
COc1ccc(S(=O)(=O)N(CC(C)C)CC(O)C(Cc2ccc(NCP(=O)(NC(C)C(=O)OC(C)C)Oc3ccccc3)cc2)NC(=O)OC2COC3OCCC23)cc1 (stereo not shown) [drawing 661],,,,"Ki ([1]; class symbols, Table 10): + +"
COc1ccc(S(=O)(=O)N(CC(C)C)CC(O)C(Cc2ccc(NCP(=O)(NC(C)C(=O)OC(C)C)Oc3ccccc3)cc2)NC(=O)OC2COC3OCCC23)cc1 (stereo not shown) [drawing 662],,,,"Ki ([1]; class symbols, Table 10): + + +"
COc1ccc(S(=O)(=O)N(CC(C)C)CC(O)C(CC2=CCN(CCP(=O)(OCc3ccccc3)OCc3ccccc3)CC2)NC(=O)OC2COC3OCCC23)cc1 (stereo not shown) [drawing 673],,,,Ki ([1]; read-out: Ki): > 1000 pM; EC50 (nM) [2]: + +; I84V/L90M fold change (mutant HIV-1 I84V/L90M; mutant I84V/L90M vs wild type): − (≦3)
CC(C)CN(CC(O)C(Cc1ccc(OCP(=O)(NC(C)C(=O)OC(C)C)Oc2ccccc2)cc1)NC(=O)OC1CCOC1)S(=O)(=O)c1ccc(N)cc1 (stereo not shown) [drawing 697 R1=OPh R2=Ala-iPr],100 to 1000 pM,+ (>3 to ≦10),,"Ki ([1]; class symbols, Table 10): + +; EC50 ([2]; class symbols, Table 10): + +"
CCCCOC(=O)C(C)OP(=O)(COc1ccc(CC(NC(=O)OC2COC3OCCC23)C(O)CN(CC(C)C)S(=O)(=O)c2cccc(N)c2)cc1)Oc1ccccc1 (stereo not shown) [drawing 719],,,,Ki ([1]; Ki (pM)): 100 to 1000 pM; I84V/L90M fold change (mutant HIV-1 I84V/L90M; mutant I84V/L90M vs wild type): − (≦3)
CCCCOC(=O)C(C)OP(=O)(COc1ccc(CC(NC(=O)OC2COC3OCCC23)C(O)CN(CC(C)C)S(=O)(=O)c2cccc(N)c2)cc1)Oc1ccccc1 (stereo not shown) [drawing 720],,,,Ki (pM) [1]: + +
CCOP(=O)(CCCNC(=O)c1cccc(CN2C(=O)N(Cc3ccc4[nH]nc(N)c4c3)C(Cc3ccccc3)C(O)C(O)C2Cc2ccccc2)c1)OCC (stereo not shown) [drawing 820],,,,IC50 (84V90M HIV protease): 10 nM
